This note sets out measurements from US20190388559A1, “ENCAPSULATION OF METAL OXIDE NANOMATERIALS FOR CONTROLLED RELEASE AND TARGETED DELIVERY” (Boise State University, priority 2018, published 2019).

In this test the test system is T47D breast cancer cells. The test can be described thus: Alamar Blue viability of T47D cells with or without UV triggered release. The format is cell-based. The note with it: 48 hours, free nZnO 16.3 μg/mL, free PTX 40 nM. The protocol:
Both cell lines were cultured in log phase using RPMI 1640 media supplemented with 10% fetal bovine serum (FBS), 1% penicillin/streptomycin, 2 mM L-glutamine, and for T47D cells, 0.2 Units/mL of bovine insulin per American Type Culture Collection (ATCC) recommendations.
For viability assessments, both Jurkat and T47D cells were cultured following ATCC recommendations noted above. For the Jurkat T cell line, the cells were first washed with PPH free RPMI 1640 and then seeded at a concentration of 2.5×10^5 cells/mL using the same media in a 96 well plate. For T47D cells, the cells were first seeded in the culture media at 1.0×10^5 cells/well in a 24 well plate the day prior to treatment to allow for cell attachment. The media was then gently aspirated and replaced with the PPH free RPMI 1640 media prior to NP treatment. […]
Once treated with NPs, the cells were then cultured for 48 hours at 37° C. and 5% CO2. […] After optimizing the UV irradiation protocol, required UV exposure was determined to be 3 minutes for Jurkat cells and 2 minutes for T47D cells to re-establish the toxicity of the nZnO while minimizing effects to the cellular viability. Cell viability was assessed using the Alamar Blue metabolic assay. […] The fluorescence intensity measurements were performed using a Biotek Synergy MX plate reader using an excitation/emission of 530/590 nm.
A general note: Alamar Blue is a resazurin reagent that responds to reducing activity.

As to `CC(=O)O[C@H]1C(=O)[C@@]2(C)[C@H]([C@H](OC(=O)c3ccccc3)[C@]3(O)C[C@H](OC(=O)[C@H](O)[C@@H](NC(=O)c4ccccc4)c4ccccc4)C(C)=C1C3(C)C)[C@]1(OC(C)=O)CO[C@@H]1C[C@@H]2O` [PTX, Paclitaxel], the “effect of free (non-encapsulated) controls on viability” value is given as “somewhat similar effect as the non-triggered release Enc-nZnO/PTX group”.
